Where a chain is given by its changes, count along the chain named. Where no end group is shown, it is not given here.
Tests used:
Experiment in all cases: Homologous whole cell competition binding
Details in all cases: homologous competition of 125I-sCT(8-32), whole cells, mean ± S.E.M., SEM
[1] = target: T1, hCTR M376A (Homo sapiens, UniProt P30988, M376A)
T1 construct: c-Myc (N); expressed in transfected cells
T1 sequence (P30988 25-474 M376A): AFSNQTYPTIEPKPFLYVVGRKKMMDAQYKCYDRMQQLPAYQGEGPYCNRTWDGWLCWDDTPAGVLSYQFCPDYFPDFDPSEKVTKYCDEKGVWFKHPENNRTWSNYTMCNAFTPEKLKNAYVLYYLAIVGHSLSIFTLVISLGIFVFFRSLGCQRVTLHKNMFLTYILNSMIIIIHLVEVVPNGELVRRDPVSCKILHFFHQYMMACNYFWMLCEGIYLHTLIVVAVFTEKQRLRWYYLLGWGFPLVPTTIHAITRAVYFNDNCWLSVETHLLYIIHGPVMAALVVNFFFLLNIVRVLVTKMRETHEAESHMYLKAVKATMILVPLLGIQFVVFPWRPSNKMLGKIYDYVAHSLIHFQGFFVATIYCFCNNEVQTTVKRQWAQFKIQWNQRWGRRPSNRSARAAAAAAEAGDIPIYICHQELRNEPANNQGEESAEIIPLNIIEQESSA
Outline: (§1)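 Affinity comes from self-competition of sCT(8-32) against its iodinated form on intact cells, held at 4 °C overnight. Bound counts were read on a gamma counter, fitted to a 3-parameter logistic curve and converted with Cheng-Prusoff.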

[2] = target: T2, hCTR G369A (Homo sapiens, UniProt P30988, G369A)
T2 construct: c-Myc (N); expressed in transfected cells
T2 sequence (P30988 25-474 G369A): T1 sequence (P30988 25-474 M376A) with G345A, A352M
Outline: as §1

[3] = target: T3, hCTR D373A (Homo sapiens, UniProt P30988, D373A)
T3 construct: c-Myc (N); expressed in transfected cells
T3 sequence (P30988 25-474 D373A): T1 sequence (P30988 25-474 M376A) with D349A, A352M
Outline: as §1

[4] = target: T4, hCTR H296A (Homo sapiens, UniProt P30988, H296A)
T4 construct: c-Myc (N); expressed in transfected cells
T4 sequence (P30988 25-474 H296A): T1 sequence (P30988 25-474 M376A) with H272A, A352M
Outline: as §1

- Ki [1]: 0.132 nM
- Ki [2]: 0.229 nM
- Ki [3]: 0.525 nM
- Ki [4]: 0.269 nM
Substance: VLGKLSQELHKLQTYPRTNTGSGTP-NH2 [sCT(8-32)]

Reference: article PMC5908784, “Extracellular loops 2 and 3 of the calcitonin receptor selectively modify agonist binding and efficacy” (Biochemical Pharmacology, 2018)
